Results from the supplement of paper PMC3974653.
Where a name gives a salt, the structure may show the parent alone.

Test system: MTT (mouse pheochromocytoma)
Test: IC50 of cell viability (ATP content)
Details: (24 or 48 h)
Outline: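 Cells of the MTT mouse pheochromocytoma line, 5 µl per well at 200,000 cells/ml, were grown overnight at 37°C, 5% CO2 in white 1536-well plates with DMEM, 5% FBS and 1% horse serum. Pintool transfer then delivered 23 nl of library compound in DMSO, giving 8 final concentrations from 0.5 nM to 46 µM, for an exposure of 24 or 48 hrs. Luminescence from CellTiter-Glo was read after 15 minutes and referenced to positive-control wells (100%) and DMSO wells (0%). IC50 was calculated with a four-parameter logistic fit.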

SMILES | IC50 of cell viability [µM]
CC1(C)S[C@@H]2[C@H](NC(=O)[C@H](N)c3ccccc3)C(=O)N2[C@@H]1C(=O)OCOC(=O)[C@@H]1N2C(=O)C[C@@H]2S([O-])([O-])C1(C)C [Sultamicillin tosylate] | > 46
CCN1CCCC1CNC(=O)c1cc([S+](=O)([O-])CC)ccc1OC (stereo not given) [Sultopride Hydrochloride] | > 46
CCN1CCC[C@@H]1CNC(=O)c1cc([S+](=O)([O-])CC)ccc1OC [Sultopride Hydrochloride] | > 46
CCN(CC)CCNC(=O)c1c(C)[nH]c(/C=C2\C(=O)Nc3ccc(F)cc32)c1C [Sunitinib malate] | > 46
C[C@@H](C(=O)O)c1ccc(C(=O)c2cccs2)cc1 [Suprofen] | > 46
CCCCC1(COC(=O)CCC(=O)O)C(=O)N(c2ccccc2)N(c2ccccc2)C1=O [Suxibuzone] | > 46
O=c1n(Cl)c(=O)n(Cl)c(=O)n1Cl [Symclosene] | > 46
CCOC(=O)Oc1c(OC)cc(C(=O)O[C@@H]2C[C@H]3CN4CCc5c([nH]c6cc(OC)ccc56)[C@@H]4C[C@@H]3[C@@H](C(=O)OC)[C@H]2OC)cc1OC [Syrosingopine] | > 46
C[S+](=O)([O-])Nc1cc2occ(NC=O)c(=O)c2cc1Oc1ccccc1 [T 614] | > 46
Nc1c2c(nc3ccccc13)CCCC2 [TACRINE] | > 46
CN1CC(=O)N2C(Cc3c([nH]c4ccccc34)[C@H]2c2ccc3c(c2)OCO3)C1=O (stereo not given in full) [TADALAFIL] | > 46
CC(C)(C)NCC(O)COc1ccc(NC(=O)NC2CCCCC2)cc1 (stereo not given) [TALINOLOLUM] | > 46
O=C1OC(OC(=O)c2cccnc2Nc2cccc(C(F)(F)F)c2)c2ccccc21 (stereo not given) [TALNIFLUMATUM] | > 46
CN1C(=O)C[C@@H](C(=O)N[C@@H](Cc2c[nH]cn2)C(=O)N2CCC[C@H]2C(N)=O)NC1=O [TALTIRELIN HYDRATE] | > 46
CC1(C)CCC(C)(C)c2cc(NC(=O)c3ccc(C(=O)O)cc3)ccc21 [TAMIBAROTENE] | > 46
CCOc1ccccc1OCCN[C@H](C)Cc1ccc(OC)c([S+](N)(=O)[O-])c1 [TAMSULOSIN HYDROCHLORIDE] | > 46
NCC[S+](=O)([O-])O [TAURINE] | > 46
CCOC(=O)c1ccc(C#Cc2ccc3c(c2)C(C)(C)CCS3)nc1 [TAZAROTENE] | > 46
O=c1[nH]c(=O)n(C2CCCO2)cc1F (stereo not given) [TEGAFUR] | > 46
CCCCCNC(=N)N/N=C/c1c[nH]c2ccc(OC)cc12 [TEGASEROD] | > 46
Cc1cn([C@H]2C[C@H](O)[C@@H](CO)O2)c(=O)[nH]c1=O [TELBIVUDINUM] | > 46
Cc1scc2c1N(C(=O)CN1CCN(C)CC1)c1ccccc1NC2=O [TELENZEPINE] | > 46
CCCc1nc2c(C)cc(-c3nc4ccccc4n3C)cc2n1Cc1ccc(-c2ccccc2C(=O)O)cc1 [TELMISARTAN] | > 46
COP(=S)(OC)Oc1ccc(Sc2ccc(OP(=S)(OC)OC)cc2)cc1 [TEMEFOSUM] | > 46

SMILES | IC50 of cell viability [µM]
CCOC(=O)C(CCc1ccccc1)NC1CSC(c2cccs2)CN(CC(=O)O)C1=O (stereo not given) [TEMOCAPRIL HYDROCHLORIDE] | > 46
Cn1nnc2c(C(N)=O)ncn2c1=O [TEMOZOLOMIDE] | > 46
CO[C@H]1C[C@@H]2CC[C@@H](C)[C@@](O)(O2)C(=O)C(=O)N2CCCC[C@H]2C(=O)O[C@H]([C@H](C)C[C@@H]2CC[C@@H](OC(=O)C(C)(CO)CO)[C@H](OC)C2)CC(=O)[C@H](C)C=C(C)[C@@H](O)[C@@H](OC)C(=O)[C@H](C)C[C@H](C)/C=C/C=C/C=C1C [TEMSIROLIMUS] | > 46
COc1ccc2[nH]c([S+]([O-])Cc3ncc(C)c(OC)c3C)nc2n1 (stereo not given) [TENATOPRAZOLE] | > 46
NC(=O)n1c(O)c(C(=O)c2cccs2)c2cc(Cl)ccc21 [TENIDAPUM] | > 46
c1csc(C2(N3CCCCC3)CCCCC2)c1 [TENOCYCLIDINUM] | > 46
CC(=O)CC/C=C(\C)CC/C=C(/C)CC/C=C(\C)CCC=C(C)C [TEPRENONE] | > 46
CC(C)(C)c1ccc(C(O)CCCN2CCC(C(O)(c3ccccc3)c3ccccc3)CC2)cc1 (stereo not given) [TERFENADINE] | > 46
NCCCC[C@H](NC(=O)[C@@H]1CCCN1C(=O)[C@@H]1CSSC[C@H](NC(=O)CNC(=O)CNC(=O)CN)C(=O)N[C@@H](Cc2ccc(O)cc2)C(=O)N[C@@H](Cc2ccccc2)C(=O)N[C@@H](CCC(N)=O)C(=O)N[C@@H](CC(N)=O)C(=O)N1)C(=O)NCC(N)=O [TERLIPRESSIN] | > 46
CCCCCCCCCC(=O)O[C@H]1CC[C@H]2[C@@H]3CCC4=CC(=O)CC[C@]4(C)[C@H]3CC[C@]12C [TESTOSTERONE DECANOATE] | > 46
CC(C)CCC(=O)OC1CCC2C3CCC4=CC(=O)CC[C@]4(C)C3CC[C@]12C (stereo not given in full) [TESTOSTERONE ISOCAPROATE] | > 46
CC(C)=CC1C(C(=O)OCN2C(=O)\C3=C(\CCCC3)C2=O)C1(C)C (stereo not given) [TETRAMETHRINUM] | > 46
CN(C)C(=S)SC(=S)N(C)C [TETRAMETHYLTHIURAM MONOSULFIDE] | > 46
CNc1c2c(nn1C)CCCC2 [TETRIDAMINUM] | > 46
OC\1=C(O)\C(=O)\C(=C(O)/C1=O)O [TETROQUINONE] | > 46
COC1=CC=C2[C@H]3Cc4ccc(OC)c5c4[C@@]2(CCN3C)[C@H]1O5 [THEBAINE] | > 46
C/C(=C(/CCO)SS/C(CCO)=C(\C)N(C=O)Cc1cnc(C)nc1N)N(C=O)Cc1cnc(C)nc1N [THIAMINE DISULFIDE] | > 46
C[S+](=O)([O-])c1ccc([C@@H](O)[C@@H](COC(=O)CN)NC(=O)C(Cl)Cl)cc1 [THIAMPHENICOL AMINOACETATE HYDROCHLORIDE] | > 46
[Na+].CCCC(C)C1(CC=C)C(=O)N\C(=N/C1=O)[S-] (stereo not given) [THIAMYLAL SODIUM] | > 46
S=P(N1CC1)(N1CC1)N1CC1 [THIO-TEPA] | > 46
CC(=O)Nc1ccc(/C=N/NC(N)=S)cc1 [THIOACETAZONUM] | > 46
NC(=O)CCCCC1CCSS1 (stereo not given) [THIOCTIC ACID AMIDE] | > 46
OCC(O)CS (stereo not given) [THIOGLYCEROL] | > 46
NC/1=N/C2=C([NH]C=N2)C(=S)N1 [THIOGUANINE] | > 46

SMILES | IC50 of cell viability [µM]
CCCC(C)C1(CC)C(=O)NC(=S)NC1=O (stereo not given) [THIOPENTAL SODIUM] | > 46
CSc1ccc2c(c1)N(CCC1CCCCN1C)c1ccccc1S2 (stereo not given) [THIORIDAZINE] | > 46
COc1ccc(CN(CCN(C)C)c2ncccn2)cc1.Cl [THONZYLAMINE HYDROCHLORIDE] | > 46
CC(O)C(N)C(=O)O (stereo not given) [THREONINE] | > 46
Cc1cc(OI)c(C(C)C)cc1-c1cc(C(C)C)c(OI)cc1C [THYMOL IODIDE] | > 46
CC(C)C(NC(=O)C(CC(=O)O)NC(=O)C(CCCCN)NC(=O)C(N)CCCNC(=N)N)C(=O)NC(Cc1ccc(O)cc1)C(=O)O (stereo not given) [THYMOPENTINUM] | > 46
C=C[C@]1(C)C[C@@H](OC(=O)CSCCN(CC)CC)[C@]2(C)C(C)CC[C@]3(CCC(=O)[C@H]32)[C@@H](C)[C@@H]1O (stereo not given in full) [TIAMULIN] | > 46
CN1c2ccccc2C(NCCCCCCC(=O)[O][Na])c2ccc(Cl)cc2[S+]1(=O)[O-] (stereo not given) [TIANEPTINUM] | > 46
C#C[C@]1(O)CC[C@H]2[C@H]3[C@H](CC[C@@]21C)C1=C(CC(=O)CC1)C[C@@H]3C [TIBOLONE] | > 46
Clc1ccccc1CN1CCc2sccc2C1 [TICLOPIDINE] | > 46
CCN(CC)CCSC(=O)C(c1ccccc1)c1ccccc1 [TIFENAMILUM] | > 46
CCC1OC(=O)C[C@H](O)C(C)[C@@H](O[C@@H]2OC(C)C(O)[C@H](N(C)C)C2O)C(CCN2CC(C)CC(C)C2)CC(C)C(=O)/C=C/C(C)=C\[C@@H]1COC1OC(C)C(O)C(OC)C1OC (stereo not given in full) [TILMICOSIN] | > 46
CCN(CC)CCOc1ccc2c(c1)C(=O)c1cc(OCCN(CC)CC)ccc1-2 [TILORONE] | > 46
O=P([O-])(O)C(Sc1ccc(Cl)cc1)P(=O)([O-])O [TILUDRONATE DISODIUM] | > 46
COC1C\C(C[N+](C)(C)C1)=C(/C2=CC=CS2)C3=CC=CS3 (stereo not given) [TIMEPIDIUM BROMIDE] | > 46
O=C(O)[C@@H]1CSCN1 [TIMONACICUM] | > 46
Clc1ccc(C(Cn2ccnc2)OCc2ccsc2Cl)c(Cl)c1 (stereo not given) [TIOCONAZOLE] | > 46
CC(S)C(=O)NCC(=O)O (stereo not given) [TIOPRONIN] | > 46
CN/C(=N/C#N)NCCSCc1csc(N=C(N)N)n1 [TIOTIDINE] | > 46
C[N+]1(C)[C@@H]2CC(OC(=O)C(O)(c3cccs3)c3cccs3)C[C@H]1[C@@H]1O[C@@H]12 (stereo not given in full) [TIOTROPIUM BROMIDE MONOHYDRATE] | > 46
O=c1oc2cc(O)ccc2s1 [TIOXOLONE] | > 46
CN1CCC\C(C1)=C(/C2=CC=CS2)C3=CC=CS3 [TIPEPIDINE HIBENZATE] | > 46
